Assay [1] concerns FCR3 strain, a drug sensitive strain of Plasmodium falciparum. Description: In vitro antimalarial assay (p-LDH, Malstat), FCR3 strain. Format: cell-based. As to conditions: read-out: Antimalarial activity (IC50 value), Strain FCR3. The procedure, abridged: (§1)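 P. falciparum FCR3 and K1 cultured in human erythrocytes (RPMI 1640, 10% human plasma; 2% hematocrit, 0.5 or 1% parasitaemia) with compound at 12.5 to 0.0001 μM final for 72 h at 37° C (3% O2-4% CO2-93% N2). Growth read as p-LDH activity (Malstat/NBT-PES, A655 nm) after freeze-thaw; IC50 from concentration-response curve.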

For assay [2], the system named is P. berghei N strain (drug sensitive strain). Description: In vivo antimalarial assay, mouse model infected with rodent malaria. The settings on record: Plasmodium berghei, ip, 96 h, read-out: Therapeutical Effect (%) inhibition; for inhibition in vivo at 3 mg/kg: 3 mg/kg i.p. How it is done: In vivo antimalarial activity of the compound of the present invention was determined using a mouse model infected with rodent malaria P. berghei N strain (drug sensitive strain) by slightly modifying the method described in the above publication of Otoguro et al. (2001) and the method reported by Peters et al. (Peters, W., Portus, J. H. and Robinson, B. L.: The chemotherapy of rodent malaria. XXII. The value of drug-resistant strains of P. berghei in Screening for blood schizonticidal activity. Ann. Trop. Med. Parasitol., 69: 155-171, (1975)). The P. berghei N strain was generous gift from Dr. W. Peters (Northwick Park Institute for Medical Research, Middlesex, United Kingdom).
A group of three ICR male mice (Charles River Laboratories Japan, Inc.) weighing 18 to 20 g was used as a test animal. Using protozoa maintained and sub-cultured by in vivo passage, 2×10^6 parasite-infected erythrocytes were pre pared, and the mice were infected therewith by tail vein injection. For the therapeutic test, a 1-day suppressive test was performed. The day of infection was defined as day 0. Two hours after the infection, a solution of the test compound (solvent: 3% DMSO/0.5% methylcellulose400-solution or suspension) was administered intraperitoneally (i.p.) once to 3 times. On day 4, blood smear preparation was prepared by collecting from the tail vein and the ratio of parasite-infected erythrocytes (parasitaemia) was investigated to determine the therapeutic effect (inhibition percentage) based on the infection rate of the group to which the compound was not administered. The significance test was performed by Dunnett's test.

Assay [3] relates to K1 strain, a drug resistant strain of Plasmodium falciparum. Description: In vitro antimalarial assay (p-LDH, Malstat), K1 strain. Format: cell-based. The settings on record: read-out: Antimalarial activity (IC50 value), Strain K1. Put shortly:
as §1

The mark [4] stands for this setting: P. falciparum FCR3 (drug sensitive), 72 h culture, p-LDH readout.
Setting [5] is: 10 mg/kg i.p., administered once, parasitaemia on day 4, ICR mice.
Where [6] appears, read: P. falciparum K1 (drug resistant), 72 h culture, p-LDH readout.
[7] abbreviates: 10 mg/kg i.p., administered three times (day 0, 1 and 2), parasitaemia on day 4, ICR mice.
[8] abbreviates: 10 mg/kg i.p., administered twice (day 0 and 1), parasitaemia on day 4, ICR mice.

The text below walks through data of US10538521B2, “Pyrimidine derivative having antimalarial activity” (CARNA BIOSCIENCES, INC., priority 2016, dated 2020).

Molecules are shown by their SMILES. Structures can show the parent of a compound that is named as a salt. Where two headings read alike, the source gives them in different places.

For orientation: IC50 means the concentration at which inhibition is half-maximal. Turning to `Cc1cccc(Nc2nc(Nc3ccn4ccnc4c3)cc(N3CCCCC3)n2)n1` [Example 28, N4-(imidazo[1,2-a]pyridin-7-yl)-N2-(6-methylpyridin-2-yl)-6-(piperidin-1-yl)pyrimidine-2,4-diamine], the 50% inhibitory concentration (IC50) in assay [1] (setting [4]) and in assay [3] (setting [6]) was less than 100 nM throughout. The inhibition in vivo at 10 mg/kg in assay [2] (setting [5]) amounted to 51.4%.
On to `Cc1cc(C)nc(Nc2nc(Nc3ccn4ccnc4c3)cc(N3CCCCC3)n2)c1` [Example 32, N2-(4,6-dimethylpyridin-2-yl)-N4-(imidazo[1,2-a]pyridin-7-yl)-6-(piperidin-1-yl)pyrimidine-2,4-diamine], for which the concentration for half-maximal inhibition (IC50) in assay [1] (setting [4]) and in assay [3] (setting [6]) was less than 100 nM each time. The inhibition in vivo at 10 mg/kg in assay [2] (setting [5]) was determined as 47.5%.
Regarding `Cc1ccnc(Nc2nc(Nc3ccn4ccnc4c3)cc(N3CCCCC3)n2)c1` [Example 34, N4-(imidazo[1,2-a]pyridin-7-yl)-N2-(4-methylpyridin-2-yl)-6-(piperidin-1-yl)pyrimidine-2,4-diamine], the 50% inhibitory concentration (IC50) was 100 to 1000 nM in assay [1] (setting [4]) and less than 100 nM in assay [3] (setting [6]). In addition, the inhibition in vivo at 10 mg/kg in assay [2] (setting [5]) was 51.5%.
In the same order, the values of `CCc1ccnc(Nc2nc(Nc3ccn4ccnc4c3)cc(N3CCOCC3)n2)c1` [Example 68, N2-(4-ethylpyridin-2-yl)-N4-(imidazo [1,2-a]pyridin-7-yl)-6-morpholinopyrimidine-2,4-diamine] are less than 100 nM, less than 100 nM and 41.7%.
As for `COc1ccnc(Nc2nc(Nc3ccn4ccnc4c3)cc(N3CCCCC3)n2)c1` [Example 93, N4-(imidazo[1,2-a]pyridin-7-yl)-N2-(4-methoxypyridin-2-yl)-6-(piperidin-1-yl)pyrimidine-2,4-diamine], the concentration for half-maximal inhibition (IC50) in assay [1] (setting [4]) and in assay [3] (setting [6]) was less than 100 nM each time. The inhibition in vivo at 3 mg/kg in assay [2] (administered twice (day 0 and 1), parasitaemia on day 4, ICR mice) is 64.2%.
Regarding `CCc1ccnc(Nc2nc(Nc3ccn4ccnc4c3)cc(N3CCCC3)n2)c1` [Example 94, N2-(4-ethylpyridin-2-yl)-N4-(imidazo[1,2-a]pyridin-7-yl)-6-(pyrrolidin-1-yl)pyrimidine-2,4-diamine], the IC50 in assay [1] (setting [4]) and in assay [3] (setting [6]) was less than 100 nM each time. The inhibition in vivo at 3 mg/kg in assay [2] (administered once, parasitaemia on day 4, ICR mice) is 42.9%.
`CCCc1cccc(Nc2nc(Nc3ccn4ccnc4c3)cc(N3CCCCC3)n2)n1` [Example 105, N4-(imidazo[1,2-a]pyridin-7-yl)-6-(piperidin-1-yl)-N2-(6-propylpyridin-2-yl)pyrimidine-2,4-diamine]: the half-maximal inhibitory concentration (IC50) in assay [1] (setting [4]) and in assay [3] (setting [6]) was less than 100 nM in each case. Besides, in assay [2] (setting [5]), the inhibition in vivo at 10 mg/kg worked out at 41.9%.
With `CCCCc1cccc(Nc2nc(Nc3ccn4ccnc4c3)cc(N3CCCCC3)n2)n1` [Example 106, N2-(6-butylpyridin-2-yl)-N4-(imidazo[1,2-a]pyridin-7-yl)-6-(piperidin-1-yl)pyrimidine-2,4-diamine], the IC50 in assay [1] (setting [4]) and in assay [3] (setting [6]) was less than 100 nM throughout. Moreover, in assay [2] (setting [7]), the inhibition in vivo at 10 mg/kg amounted to 87.4%.
As for `CCc1ccnc(Nc2nc(Nc3ccn4ccnc4c3)cc(N3CCC(OC)CC3)n2)c1` [Example 114, N2-(4-ethylpyridin-2-yl)-N4-(imidazo[1,2-a]pyridin-7-yl)-6-(4-methoxypiperidin-1-yl)pyrimidine-2,4-diamine], the half-maximal inhibitory concentration (IC50) in assay [1] (setting [4]) and in assay [3] (setting [6]) was less than 100 nM in each case. In addition, the inhibition in vivo at 10 mg/kg in assay [2] (setting [5]) worked out at 70.9%.
Regarding `Cc1cc(C)nc(Nc2nc(Nc3ccn4ccnc4c3)cc(N3CCC(C)(C)C3)n2)c1` [Example 142, N2-(4,6-dimethylpyridin-2-yl)-6-(3,3-dimethylpyrrolidin-1-yl)-N4-(imidazo[1,2-a]pyridin-7-yl)pyrimidine-2,4-diamine], the IC50 in assay [1] (setting [4]) and in assay [3] (setting [6]) was less than 100 nM in each case. For the same compound, in assay [2] (setting [7]), the inhibition in vivo at 10 mg/kg was determined as 84.5%.
Take `Cc1cc(C)nc(Nc2nc(Nc3ccn4ccnc4c3)cc(N3CC(C)C(C)C3)n2)c1` (stereo not drawn) [Example 147, N2-(4,6-dimethylpyridin-2-yl)-6-(3,4-dimethylpyrrolidin-1-yl)-N4-(imidazo[1,2-a]pyridin-7-yl)pyrimidine-2,4-diamine formate]: the IC50 was less than 100 nM in assay [1] (FCR3, 72 h) and less than 100 nM in assay [3] (K1, 72 h). Also, the inhibition in vivo at 10 mg/kg in assay [2] worked out at 83.4%.
Consider `CC(C)Cc1cccc(Nc2nc(Nc3ccn4ccnc4c3)cc(N3CCCC3)n2)n1` [Example 161, N4-(imidazo[1,2-a]pyridin-7-yl)-N2-(6-isobutylpyridin-2-yl)-6-(pyrrolidin-1-yl)pyrimidine-2,4-diamine], for which the 50% inhibitory concentration (IC50) in assay [1] (setting [4]) and in assay [3] (setting [6]) was less than 100 nM each time. Further, the inhibition in vivo at 10 mg/kg in assay [2] (setting [8]) is 64.3%.
In the case of `CCCCc1cccc(Nc2nc(Nc3ccn4ccnc4c3)cc(N3CCCC3)n2)n1` [Example 165, N2-(6-butylpyridin-2-yl)-N4-(imidazo[1,2-a]pyridin-7-yl)-6-(pyrrolidin-1-yl)pyrimidine-2,4-diamine], the IC50 in assay [1] (setting [4]) and in assay [3] (setting [6]) was less than 100 nM in each case. Besides, in assay [2] (setting [8]), the inhibition in vivo at 10 mg/kg amounted to 98%.
As for `CCc1ccnc(Nc2nc(Nc3ccn4ccnc4c3)cc(N3CCC(C)(C)C3)n2)c1` [Example 170, 6-(3,3-dimethylpyrrolidin-1-yl)-N2-(4-ethylpyridin-2-yl)-N4-(imidazo[1,2-a]pyridin-7-yl) pyrimidine-2,4-diamine], the IC50 in assay [1] (setting [4]) and in assay [3] (setting [6]) was less than 100 nM in each case. Further, the inhibition in vivo at 10 mg/kg in assay [2] (setting [5]) was found to be 92.9%.
With `Cc1cc(C)nc(Nc2nc(Nc3ccn4ccnc4c3)cc(N3CCC4(CCCC4)C3)n2)c1` [Example 174, N2-(4,6-dimethylpyridin-2-yl)-N4-(imidazo[1,2-a]pyridin-7-yl)-6-(2-azaspiro[4.4]nonan-2-yl)pyrimidine-2,4-diamine], the half-maximal inhibitory concentration (IC50) in assay [1] (setting [4]) and in assay [3] (setting [6]) was less than 100 nM throughout. The inhibition in vivo at 10 mg/kg in assay [2] (setting [8]) was determined as 93.6%.
For the compound `COc1ccnc(Nc2nc(Nc3ccn4ccnc4c3)cc(N3CCC4(CCCC4)C3)n2)c1` [Example 207, N4-(imidazo[1,2-a]pyridin-7-yl)-N2-(4-methoxypyridin-2-yl)-6-(2-azaspiro[4.4]nonan-2-yl) pyrimidine-2,4-diamine], the IC50 in assay [1] (setting [4]) and in assay [3] (setting [6]) was 100 to 1000 nM throughout.
With `CCc1ccnc(Nc2nc(Nc3ccn4ccnc4c3)cc(N3CCC4(CCCC4)C3)n2)c1` [Example 208, N2-(4-ethylpyridin-2-yl)-N4-(imidazo[1,2-a]pyridin-7-yl)-6-(2-azaspiro[4.4]nonan-2-yl) pyrimidine-2,4-diamine], the IC50 in assay [1] (setting [4]) and in assay [3] (setting [6]) was 100 to 1000 nM in each case.
`COc1ccnc(Nc2nc(Nc3ccn4ccnc4c3)cc(N3CCC(C)(C)C3)n2)c1` [Example 209, 6-(3,3-dimethylpyrrolidin-1-yl)-N4-(imidazo[1,2-a]pyridin-7-yl)-N2-(4-methoxypyridin-2-yl) pyrimidine-2,4-diamine]: the IC50 in assay [1] (setting [4]) and in assay [3] (setting [6]) was 100 to 1000 nM each time.
